PubChem BioAssay AID1963873 (Molecular Pharmacology Branch, DTP, NCI, 2024)

Test system: 276233-004-R-J1-PDC KRAS spheroids with HUVEC/MSC, viability
Assay: Anticancer human tumor 276233-004-R-J1-PDC patient-derived colon adenocarcinoma cell line growth inhibition [KRAS2]
Settings: for IC50: curve of first compound; for viability, T/C: stronger effect = lower value
From the text: Multicellular complex tumor spheroid response to RAS pathway inhibitors in combination with a targeted agents in patient-derived cell lines with oncogenic KRAS variants from multiple cancer types
A high-throughput screen of multi-cell type tumor spheroids was designed to identify active combinations of targeted small molecules and KRAS pathway inhibitors. Complex spheroids include a stromal component modeled by human endothelial cells (HUVEC) and fibroblasts modeled by human mesenchymal stem cells (MSCs). The concentration ranges selected for each drug and investigational agent were based upon clinically achievable concentrations if the clinical Cmax of the agent was known.
Compounds. The drugs and investigational agents: BI-3406 (NSC825286), BAY-293 (NSC824723), batoprotafib (TNO155; NSC825523), sotorasib (AMG 510; NSC818433), MRTX1257 (NSC819558), elimusertib (BAY 1895344; NSC800525), molibresib (GSK525762; NSC774829), temuterkib (LY3214996; NSC803410), venetoclax (NSC766270), alisertib (NSC759677), olaparib (NSC753686), talazoparib (NSC767125), erdafitinib (NSC781556), ipatasertib (NSC767898), cabozantinib (NSC761068), nintedanib (NSC756659), abemaciclib (NSC768073), docetaxel (NSC628503), trametinib (NSC758246), and sapanisertib (NSC764658) were obtained from the National Cancer Institute (NCI) Developmental Therapeutics Program Chemical Repository. The FDA-approved anticancer drug set is available from the Developmental Therapeutics Program. […] The stock solutions were prepared in dimethyl sulfoxide (DMSO, Sigma-Aldrich, St. Louis, MO, cat. D2650) at 800-fold the tested concentration and stored at -70 degrees C prior to their use. All drugs and investigational agents were tested over a range starting from a high concentration at or near the clinical Cmax and decreasing in half-log increments. If the clinical Cmax for an agent had not been determined, the highest concentration tested was 10 microM.
Cell Culture. All cells were maintained in an incubator at 37 degrees C and 5% CO2 with 95% humidity. The PDC lines were cultured according to standard operating procedures established by the NCI PDMR (https://pdmr.cancer.gov/sops/default.htm). Briefly, all PDCs were thawed and cultured in Matrigel-coated flasks prepared with a working solution of 1X Ham's F-12 nutrient mix, without supplementation (Invitrogen, Waltham, MA, cat. 11765054), 100 U/mL penicillin-streptomycin (Invitrogen, cat. 15140122), and 2.5% Matrigel (Corning Inc., Corning, NY, cat. 354248) for the first three passages. All PDCs were cultured in complete DMEM/F-12 media containing advanced DMEM/F-12 (Invitrogen, cat. 12634028), 4.9% defined fetal bovine serum, heat inactivated (HyClone Laboratories Inc., Logan, UT, cat. SH30070.03HI), 389 ng/mL hydrocortisone (Sigma-Aldrich, cat. H4001), 9.7 ng/mL human EGF recombinant protein (Invitrogen, cat. PHG0313), 23.4 microg/mL adenine (Sigma-Aldrich, cat. A2786), 97.3 U/mL penicillin-streptomycin (Invitrogen, cat. 15140122), 1.9 mM L-glutamine (Invitrogen, cat. 25030081), and 9.7 microM Y-27632 dihydrochloride (Tocris Bioscience, Bristol, United Kingdom, cat. 1254). The PDCs were cultured in complete DMEM/F12 media without 9.7 microM Y-27632 dihydrochloride for at least two passages prior to the screen. The established cell line HOP-62 was cultured in RPMI 1640 medium, HEPES (Invitrogen, cat. 22400105) with 10% defined fetal bovine serum (HyClone Laboratories Inc., cat. SH30070.03) and 2 mM L-glutamine (Invitrogen, cat. 25030081). The pooled donor HUVEC were cultured in endothelial cell growth medium 2 (PromoCell, Heidelberg, Germany, cat. C-22011) and the hMSC were cultured in mesenchymal stem cell growth medium 2 (PromoCell, cat. C-28009). For all experiments, HUVEC and hMSC were used at passages </=5, while the malignant cell lines were used at passages </=15. […]

[1] = second compound 0.1 µM, first compound 0.0316 µM
[2] = second compound 0.1 µM, first compound 0.1 µM
[3] = second compound 0.1 µM, first compound 0.316 µM
[4] = second compound 0.1 µM, first compound 1 µM
[5] = second compound 0.1 µM, first compound 3.16 µM
[6] = second compound 0.1 µM, first compound 10 µM
[7] = second compound 0.316 µM, first compound 0.0316 µM
[8] = second compound 0.316 µM, first compound 0.1 µM
[9] = second compound 0.316 µM, first compound 0.316 µM
[10] = second compound 0.316 µM, first compound 1 µM
[11] = second compound 0.316 µM, first compound 3.16 µM
[12] = second compound 0.316 µM, first compound 10 µM
[13] = second compound 1 µM, first compound 0.0316 µM
[14] = second compound 1 µM, first compound 0.1 µM
[15] = second compound 1 µM, first compound 0.316 µM
[16] = second compound 1 µM, first compound 1 µM
[17] = second compound 1 µM, first compound 3.16 µM
[18] = second compound 1 µM, first compound 10 µM
[19] = second compound 3.16 µM, first compound 0.0316 µM
[20] = second compound 3.16 µM, first compound 0.1 µM
[21] = second compound 3.16 µM, first compound 0.316 µM
[22] = second compound 3.16 µM, first compound 1 µM
[23] = second compound 3.16 µM, first compound 3.16 µM
[24] = second compound 3.16 µM, first compound 10 µM
[25] = second compound 10 µM, first compound 0.0316 µM
[26] = second compound 10 µM, first compound 0.1 µM
[27] = second compound 10 µM, first compound 0.316 µM
[28] = second compound 10 µM, first compound 1 µM
[29] = second compound 10 µM, first compound 3.16 µM
[30] = second compound 10 µM, first compound 10 µM
[31] = second compound 0.1 µM, first compound 0.000316 µM
[32] = second compound 0.1 µM, first compound 0.001 µM
[33] = second compound 0.1 µM, first compound 0.00316 µM
[34] = second compound 0.1 µM, first compound 0.01 µM
[35] = second compound 0.316 µM, first compound 0.000316 µM
[36] = second compound 0.316 µM, first compound 0.001 µM
[37] = second compound 0.316 µM, first compound 0.00316 µM
[38] = second compound 0.316 µM, first compound 0.01 µM
[39] = second compound 1 µM, first compound 0.000316 µM
[40] = second compound 1 µM, first compound 0.001 µM
[41] = second compound 1 µM, first compound 0.00316 µM
[42] = second compound 1 µM, first compound 0.01 µM
[43] = second compound 3.16 µM, first compound 0.000316 µM
[44] = second compound 3.16 µM, first compound 0.001 µM
[45] = second compound 3.16 µM, first compound 0.00316 µM
[46] = second compound 3.16 µM, first compound 0.01 µM
[47] = second compound 10 µM, first compound 0.000316 µM
[48] = second compound 10 µM, first compound 0.001 µM
[49] = second compound 10 µM, first compound 0.00316 µM
[50] = second compound 10 µM, first compound 0.01 µM
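Also: cells exposed to agents for seven days before viability read.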
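For viability, T/C in this document: 100% = DMSO vehicle control wells and lower values mean fewer viable cells.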

Row | Structure (SMILES) | IC50 (second compound 0.1 µM) | IC50 (second compound 0.316 µM) | IC50 (second compound 1 µM) | IC50 (second compound 3.16 µM) | IC50 (second compound 10 µM) | viability, T/C [1] | viability, T/C [2] | viability, T/C [3] | viability, T/C [4] | viability, T/C [5] | viability, T/C [6] | viability, T/C [7] | viability, T/C [8] | viability, T/C [9] | viability, T/C [13] | viability, T/C [14] | viability, T/C [19] | viability, T/C [20] | viability, T/C [25] | viability, T/C [26] | also measured
1 | CC(C)NCC(C(=O)N1CCN(c2ncnc3c2C(C)CC3O)CC1)c1ccc(Cl)cc1 (stereo not given) + C=CC(=O)N1CCN(c2nc(=O)n(-c3c(C)ccnc3C(C)C)c3nc(-c4c(O)cccc4F)c(F)cc23)C(C)C1 | > 10 µM | > 10 µM | > 10 µM | 7.17 µM | > 10 µM | 109% | 128% | 91.3% | 74.2% | 73.6% | 70.5% | 89% | 71.7% | 101% | 106% | 102% | 125% | 103% | 75% | 79.1% | viability, T/C [10]: 80%; viability, T/C [11]: 77.3%; viability, T/C [12]: 63.1%; viability, T/C [15]: 93.8%; viability, T/C [16]: 76.9%; viability, T/C [17]: 81.1%; viability, T/C [18]: 60.7%; viability, T/C [21]: 67.4%; viability, T/C [22]: 66.5%; viability, T/C [23]: 59.3%; viability, T/C [24]: 57.5%; viability, T/C [27]: 58.9%; viability, T/C [28]: 66.8%; viability, T/C [29]: 85.5%; viability, T/C [30]: 64.4%
2 | CC(C)n1nc(-c2ccc3oc(N)nc3c2)c2c(N)ncnc21 + C=CC(=O)N1CCN(c2nc(=O)n(-c3c(C)ccnc3C(C)C)c3nc(-c4c(O)cccc4F)c(F)cc23)C(C)C1 | > 0.1 µM | 0.0271 µM | 0.0295 µM | > 0.1 µM | > 0.1 µM | 50.8% | 56.2% | – | – | – | – | 45.4% | 49.8% | – | 48.4% | 49.7% | 51% | 51.5% | 54.9% | 58% | viability, T/C [31]: 88.4%; viability, T/C [32]: 91.7%; viability, T/C [33]: 64.8%; viability, T/C [34]: 63.4%; viability, T/C [35]: 105%; viability, T/C [36]: 94.3%; viability, T/C [37]: 76.6%; viability, T/C [38]: 57.2%; viability, T/C [39]: 94.4%; viability, T/C [40]: 86.8%; viability, T/C [41]: 105%; viability, T/C [42]: 64.2%; viability, T/C [43]: 87%; viability, T/C [44]: 80.4%; viability, T/C [45]: 75.8%; viability, T/C [46]: 59.2%; viability, T/C [47]: 88.2%; viability, T/C [48]: 84.9%; viability, T/C [49]: 67.8%; viability, T/C [50]: 72%
3 | CC1(C)CCC(CN2CCN(c3ccc(C(=O)NS(=O)(=O)c4ccc(NCC5CCOCC5)c([N+](=O)[O-])c4)c(Oc4cnc5[nH]ccc5c4)c3)CC2)=C(c2ccc(Cl)cc2)C1 + C=CC(=O)N1CCN(c2nc(=O)n(-c3c(C)ccnc3C(C)C)c3nc(-c4c(O)cccc4F)c(F)cc23)C(C)C1 | 8.94 µM | 9.58 µM | 8.59 µM | 9.15 µM | > 10 µM | 84.2% | 105% | 97.6% | 93.6% | 107% | 44.9% | 98.4% | 108% | 104% | 92.8% | 108% | 80.1% | 96.9% | 96.6% | 73.2% | viability, T/C [10]: 105%; viability, T/C [11]: 92.2%; viability, T/C [12]: 47.9%; viability, T/C [15]: 91.4%; viability, T/C [16]: 109%; viability, T/C [17]: 84.8%; viability, T/C [18]: 44.7%; viability, T/C [21]: 88.7%; viability, T/C [22]: 102%; viability, T/C [23]: 89.6%; viability, T/C [24]: 46.5%; viability, T/C [27]: 69.3%; viability, T/C [28]: 84.2%; viability, T/C [29]: 81.1%; viability, T/C [30]: 57%
4 | Cn1ncnc1[C@H]1c2n[nH]c(=O)c3cc(F)cc(c23)N[C@@H]1c1ccc(F)cc1 + C=CC(=O)N1CCN(c2nc(=O)n(-c3c(C)ccnc3C(C)C)c3nc(-c4c(O)cccc4F)c(F)cc23)C(C)C1 | > 0.1 µM | > 0.1 µM | > 0.1 µM | > 0.1 µM | > 0.1 µM | 95.1% | 91.7% | – | – | – | – | 94.4% | 92% | – | 95.5% | 94.9% | 97.8% | 133% | 83.4% | 88.4% | viability, T/C [31]: 89.7%; viability, T/C [32]: 98%; viability, T/C [33]: 94.8%; viability, T/C [34]: 99.5%; viability, T/C [35]: 99.6%; viability, T/C [36]: 111%; viability, T/C [37]: 101%; viability, T/C [38]: 100%; viability, T/C [39]: 98.6%; viability, T/C [40]: 121%; viability, T/C [41]: 138%; viability, T/C [42]: 93.9%; viability, T/C [43]: 98.4%; viability, T/C [44]: 116%; viability, T/C [45]: 117%; viability, T/C [46]: 92.5%; viability, T/C [47]: 88.2%; viability, T/C [48]: 91.3%; viability, T/C [49]: 114%; viability, T/C [50]: 85.7%
